Assay results as given in patent US12331040B2 (Karyopharm Therapeutics Inc., priority 2013, dated 2025).
Like-named read-outs stand apart in the source and are kept apart here.

What was measured:
Assay in all cases: MTT cell proliferation assay
Type in all cases: cell-based
3T3 cells = conditions: Mus musculus, NIH3T3, approximately 64-72 hours incubation
Procedure: (§1) The MTT cell proliferation assay was used to study the cytotoxic properties of the compounds. The assay was performed according to the method described by Roche Molecular Biochemicals, with minor modifications. The assay is based on the cleavage of the tetrazolium salt, MTT, in the presence of an electron-coupling reagent. The water-insoluble formazan salt produced must be solubilized in an additional step. Cells grown in a 96-well tissue culture plate were incubated with the MTT solution for approximately 4 hours. After this incubation period, a water-insoluble formazan dye formed. After solubilization, the formazan dye was quantitated using a scanning multi-well spectrophotometer (ELISA reader). […] The cells were seeded at 5,000-10,000 cells in each well of 96-well plate in 100 μL of fresh culture medium and were allowed to attach overnight. The stock solutions of the compounds were diluted in 100 μL cell culture medium to obtain eight concentrations of each test compound, ranging from 1 nM to 30 μM. […] All optical densities were measured at 490 nm using a Vmax Kinetic Microplate Reader (Molecular Devices). In most cases, the assay was performed in duplicate and the results were presented as a mean percent inhibition to the negative control±SE. The following formula was used to calculate the percent of inhibition: Inhibition (%)=(1−(ODo/OD))×100.
(§2) The compounds were tested against MS751, Z138 and 3T3 cells. The MS751 cell line is derived from a metastasis to lymph node of human cervix from a patient diagnosed with squamous cell carcinoma of the cervix. The Z138 cell line is a mature B-cell acute lymphoblastic leukemia cell line derived from a patient with chronic lymphocytic leukemia. 3T3 cells are standard fibroblast cells; they were originally isolated from Swiss mouse embryo tissue.

MS751 cells = conditions: Homo sapiens, approximately 64-72 hours incubation
Procedure: as §1, §2

Z138 cells = conditions: Homo sapiens, Z-138, Z138 cells, approximately 64-72 hours incubation
Procedure: as §1, §2

[1] = MS751, MS751 cells, read-out: MTT Assay IC50 MS-751
[2] = MS751, MS751 cells, read-out: MTT Assay IC50, MS-751
[3] = read-out: MTT Assay IC50, Z-138

Row | SMILES | IC50 (3T3 cells; read-out: MTT Assay IC50 3T3) [µM] | IC50 (MS751 cells; [1]) [µM] | IC50 (Z138 cells; read-out: MTT Assay IC50 Z-138) [µM] | IC50 (3T3 cells; read-out: MTT Assay IC50, 3T3) [µM] | IC50 (MS751 cells; [2]) [µM] | IC50 (Z138 cells; [3]) [µM] | IC50 (MS751 cells; MS751 cells, read-out: MTT Assay IC50 MS-751) [µM]
1 | CC1(F)CCN(C(=O)c2ccc(-c3cc(C(F)(F)F)c4oc(CNC(=O)/C=C/c5ccc(N)nc5)cc4c3)nc2)C1 (single isomer, unassigned) [Compound 654, (E)-3-(6-aminopyridin-3-yl)-N-((5-(5-(3-fluoro-3-methylpyrrolidine-1-carbonyl)pyridin-2-yl)-7-(trifluoromethyl)benzofuran-2-yl)methyl)acrylamide] | > 10 | < 0.1 | < 0.1 | – | – | – | –
2 | CC1(F)CCN(C(=O)c2ccc(-c3cc(C(F)(F)F)c4oc(CNC(=O)/C=C\c5ccc(N)nc5)cc4c3)nc2)C1 (single isomer, unassigned) [Compound 656, (Z)-3-(6-aminopyridin-3-yl)-N-((5-(5-(3-fluoro-3-methylpyrrolidine-1-carbonyl)pyridin-2-yl)-7-(trifluoromethyl)benzofuran-2-yl)methyl)acrylamide] | > 10 | 5 to 10 | 0.1 to 5 | – | – | – | –
3 | CC1(F)CCN(C(=O)c2ccc(-c3cc(C(F)(F)F)c4oc(CNC(=O)/C=C\c5ccc(N)nc5)cc4c3)nc2)C1 (single isomer, unassigned) [Compound 657, (Z)-3-(6-aminopyridin-3-yl)-N-((5-(5-(3-fluoro-3-methylpyrrolidine-1-carbonyl)pyridin-2-yl)-7-(trifluoromethyl)benzofuran-2-yl)methyl)acrylamide] | – | – | – | > 10 | 0.1 to 5 | 0.1 to 5 | –
4 | CC1(F)CCN(C(=O)c2ccc(-c3cc(C(F)(F)F)c4oc(CNC(=O)/C=C/c5ccc(N)nc5)cc4c3)cc2)C1 (single isomer, unassigned) [Compound 715, (E)-3-(6-aminopyridin-3-yl)-N-((5-(4-(3-fluoro-3-methylpyrrolidine-1-carbonyl)phenyl)-7-(trifluoromethyl)benzofuran-2-yl)methyl)acrylamide] | – | – | – | > 10 | 0.1 to 5 | 0.1 to 5 | –
5 | CC(=O)c1ccc(-c2cc(Cl)c3oc(CNC(=O)/C=C/c4ccc(N)nc4)cc3c2)s1 [Compound 500, (E)-N-((5-(5-acetylthiophen-2-yl)-7-chlorobenzofuran-2-yl)methyl)-3-(6-aminopyridin-3-yl) acrylamide] | > 10 | 0.1 to 5 | 0.1 to 5 | – | – | – | –
6 | Nc1ccc(/C=C/C(=O)NCc2nc3cc(-c4ccc(C(=O)N5CCOCC5)cc4)cc(Cl)c3o2)cn1 [Compound 501, (E)-3-(6-aminopyridin-3-yl)-N-((7-chloro-5-(4-(morpholine-4-carbonyl)phenyl)benzo[d]oxazol-2-yl)methyl)acrylamide] | > 10 | 0.1 to 5 | 0.1 to 5 | – | – | – | –
7 | CC(=O)c1ccc(-c2ccc3oc(CNC(=O)/C=C/c4ccc(N)nc4)cc3c2)s1 [Compound 503, (E)-N-((5-(5-acetylthiophen-2-yl)benzofuran-2-yl)methyl)-3-(6-aminopyridin-3-yl)acrylamide] | > 10 | 0.1 to 5 | > 10 | – | – | – | –
8 | Nc1ccc(/C=C/C(=O)NCc2cc3cc(-c4ccc(C(=O)NNc5cnccn5)cc4)cc(Cl)c3o2)cn1 [Compound 505, (E)-3-(6-aminopyridin-3-yl)-N-((7-chloro-5-(4-(2-(pyrazin-2-yl)hydrazine-1-carbonyl)phenyl)benzofuran-2-yl)methyl)acrylamide] | > 10 | 0.1 to 5 | 0.1 to 5 | – | – | – | –
9 | NC(=O)c1ccc(-c2cc(Cl)c3oc(CNC(=O)/C=C/c4ccc(N)nc4)cc3c2)cc1 [Compound 506, (E)-4-(2-((3-(6-aminopyridin-3-yl)acrylamido)methyl)-7-chlorobenzofuran-5-yl)benzamide] | > 10 | 5 to 10 | 0.1 to 5 | – | – | – | –
10 | Nc1ccc(/C=C/C(=O)NCc2cc3cc(-c4ccc(C(=O)CN5CCOCC5)cc4)cc(Cl)c3o2)cn1 [Compound 507, (E)-3-(6-aminopyridin-3-yl)-N-((7-chloro-5-(4-(2-morpholinoacetyl)phenyl)benzofuran-2-yl)methyl)acrylamide] | > 10 | 0.1 to 5 | 0.1 to 5 | – | – | – | –
11 | Nc1ccc(/C=C/C(=O)NCc2cc3cc(-c4ccc(C(=O)N5CC(F)(F)C5)cc4)cc(Cl)c3o2)cn1 [Compound 508, (E)-3-(6-aminopyridin-3-yl)-N-((7-chloro-5-(4-(3,3-difluoroazetidine-1-carbonyl)phenyl)benzofuran-2-yl)methyl)acrylamide] | > 10 | 0.1 to 5 | 0.1 to 5 | – | – | – | –
12 | Nc1ccc(/C=C/C(=O)NCc2nc3cc(-c4ccc(C(=O)N5CC(F)(F)C5)cc4)cc(Cl)c3o2)cn1 [Compound 509, (E)-3-(6-aminopyridin-3-yl)-N-((7-chloro-5-(4-(3,3-difluoroazetidine-1-carbonyl)phenyl)benzo[d]oxazol-2-yl)methyl)acrylamide] | > 10 | 0.1 to 5 | 0.1 to 5 | – | – | – | –
13 | CC(C)(C)c1cc(-c2ccc(C(=O)N3CCOCC3)cc2)cc2cc(CNC(=O)/C=C/c3ccc(N)nc3)oc12 [Compound 511, (E)-3-(6-aminopyridin-3-yl)-N-((7-tert-butyl-5-(4-(morpholine-4-carbonyl)phenyl)benzofuran-2-yl)methyl)acrylamide] | > 10 | 0.1 to 5 | 0.1 to 5 | – | – | – | –
14 | CC(C)(NC(=O)/C=C/c1ccc(N)nc1)c1cc2cc(-c3ccc(C(=O)N4CCOCC4)cc3)cc(Cl)c2o1 [Compound 512, (E)-3-(6-aminopyridin-3-yl)-N-(2-(7-chloro-5-(4-(morpholine-4-carbonyl)phenyl)benzofuran-2-yl)propan-2-yl)acrylamide] | > 10 | > 10 | > 10 | – | – | – | –
15 | CN1Cc2cc(-c3cc(Cl)c4oc(CNC(=O)/C=C/c5ccc(N)nc5)cc4c3)ccc2C1=O [Compound 513, (E)-3-(6-aminopyridin-3-yl)-N-((7-chloro-5-(2-methyl-1-oxoisoindolin-5-yl)benzofuran-2-yl)methyl)acrylamide] | > 10 | > 10 | 0.1 to 5 | – | – | – | –
16 | CN1C(=O)c2ccc(-c3cc(Cl)c4oc(CNC(=O)/C=C/c5ccc(N)nc5)cc4c3)cc2C1=O [Compound 514, (E)-3-(6-aminopyridin-3-yl)-N-((7-chloro-5-(2-methyl-1,3-dioxoisoindolin-5-yl)benzofuran-2-yl)methyl)acrylamide] | > 10 | 5 to 10 | 0.1 to 5 | – | – | – | –
17 | C[C@H]1COCCN1C(=O)c1ccc(-c2cc(Cl)c3oc(CNC(=O)/C=C/c4ccc(N)nc4)cc3c2)cc1 [Compound 515, (S,E)-3-(6-aminopyridin-3-yl)-N-((7-chloro-5-(4-(3-methylmorpholine-4-carbonyl)phenyl)benzofuran-2-yl)methyl)acrylamide] | > 10 | 0.1 to 5 | 0.1 to 5 | – | – | – | –
18 | C[C@@H]1COCCN1C(=O)c1ccc(-c2cc(Cl)c3oc(CNC(=O)/C=C/c4ccc(N)nc4)cc3c2)cc1 [Compound 516, (R,E)-3-(6-aminopyridin-3-yl)-N-((7-chloro-5-(4-(3-methylmorpholine-4-carbonyl)phenyl)benzofuran-2-yl)methyl)acrylamide] | > 10 | 0.1 to 5 | 0.1 to 5 | – | – | – | –
19 | Nc1ccc(/C=C/C(=O)NCc2cc3cc(-c4ccc(C(=O)NNc5ccccn5)cc4)cc(C(F)(F)F)c3o2)cn1 [Compound 518, (E)-3-(6-aminopyridin-3-yl)-N-((5-(4-(2-(pyridin-2-yl)hydrazinecarbonyl)phenyl)-7-(trifluoromethyl)benzofuran-2-yl)methyl)acrylamide] | > 10 | – | 0.1 to 5 | – | – | – | 0.1 to 5
20 | Nc1ccc(/C=C/C(=O)NCc2cc3cc(-c4ccc(C(=O)NNc5cnccn5)cc4)cc(C(F)(F)F)c3o2)cn1 [Compound 519, (E)-3-(6-aminopyridin-3-yl)-N-((5-(4-(2-(pyrazin-2-yl)hydrazinecarbonyl)phenyl)-7-(trifluoromethyl)benzofuran-2-yl)methyl)acrylamide] | > 10 | 0.1 to 5 | 0.1 to 5 | – | – | – | –
21 | Nc1ccc(/C=C/C(=O)NCc2cc3cc(-c4ccc(C(=O)N5CC(F)(F)C5)cc4)cc(C(F)(F)F)c3o2)cn1 [Compound 520, (E)-3-(6-aminopyridin-3-yl)-N-((5-(4-(3,3-difluoroazetidine-1-carbonyl)phenyl)-7-(trifluoromethyl)benzofuran-2-yl)methyl)acrylamide] | > 10 | 0.1 to 5 | 0.1 to 5 | – | – | – | –
